Reference: the supplement of paper PMC10307832

Columns and labels:
Experiment in all cases: relative viability (nuclei count vs DMSO), 5 days (fraction); higher = more cells survive
Linsitinib + Vorinostat = compound: C[C@]1(O)C[C@@H](c2nc(-c3ccc4ccc(-c5ccccc5)nc4c3)c3c(N)nccn32)C1 [Linsitinib] + O=C(CCCCCCC(=O)Nc1ccccc1)NO [Vorinostat] (partner 1 µM)
How it was run: (§1)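 Lung cancer cell lines in 1536-well plates were dosed by pin tool the day after seeding, either with one drug alone or with a fixed anchor-drug dose plus five library-drug doses (not always all listed) in √10 steps. After 5 days, cells were fixed and their nuclei stained in one step (final 0.05% Triton X-100, 1% formaldehyde, 1 ug/ml Hoechst), then counted on 4× images. Relative viability is the nuclei count in treated wells divided by that in vehicle wells. Values are medians of duplicate plates.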

Linsitinib + Foretinib = compound: C[C@]1(O)C[C@@H](c2nc(-c3ccc4ccc(-c5ccccc5)nc4c3)c3c(N)nccn32)C1 [Linsitinib] + COc1cc2c(Oc3ccc(NC(=O)C4(C(=O)Nc5ccc(F)cc5)CC4)cc3F)ccnc2cc1OCCCN1CCOCC1 [Foretinib] (partner 0.25 µM)
How it was run: as §1

Ispinesib + Pictilisib = compound: Cc1ccc(C(=O)N(CCCN)[C@@H](c2nc3cc(Cl)ccc3c(=O)n2Cc2ccccc2)C(C)C)cc1 [Ispinesib] + CS(=O)(=O)N1CCN(Cc2cc3nc(-c4cccc5[nH]ncc45)nc(N4CCOCC4)c3s2)CC1 [Pictilisib] (partner 1 µM)
How it was run: as §1

Ispinesib + Crizotinib = compound: Cc1ccc(C(=O)N(CCCN)[C@@H](c2nc3cc(Cl)ccc3c(=O)n2Cc2ccccc2)C(C)C)cc1 [Ispinesib] + C[C@@H](Oc1cc(-c2cnn(C3CCNCC3)c2)cnc1N)c1c(Cl)ccc(F)c1Cl [Crizotinib] (partner 1 µM)
How it was run: as §1

Cell Line | relative viability (Linsitinib + Vorinostat; first compound 0.01 µM) | relative viability (Linsitinib + Vorinostat; first compound 0.03162 µM) | relative viability (Linsitinib + Vorinostat; first compound 0.1 µM) | relative viability (Linsitinib + Vorinostat; first compound 0.3162 µM) | relative viability (Linsitinib + Vorinostat; first compound 1 µM) | relative viability (Linsitinib + Foretinib; first compound 0.01 µM) | relative viability (Linsitinib + Foretinib; first compound 0.03162 µM) | relative viability (Linsitinib + Foretinib; first compound 0.1 µM) | relative viability (Linsitinib + Foretinib; first compound 0.3162 µM) | relative viability (Linsitinib + Foretinib; first compound 1 µM) | relative viability (Ispinesib + Pictilisib; first compound 0.003162 µM) | relative viability (Ispinesib + Pictilisib; first compound 0.01 µM) | relative viability (Ispinesib + Pictilisib; first compound 0.03162 µM) | relative viability (Ispinesib + Pictilisib; first compound 0.1 µM) | relative viability (Ispinesib + Crizotinib; first compound 0.003162 µM) | relative viability (Ispinesib + Crizotinib; first compound 0.01 µM) | relative viability (Ispinesib + Crizotinib; first compound 0.03162 µM) | relative viability (Ispinesib + Crizotinib; first compound 0.1 µM) | relative viability (Ispinesib + Pictilisib; first compound 0.001 µM) | relative viability (Ispinesib + Crizotinib; first compound 0.001 µM)
NCI-H727 | 0.978 | 1.4 | 1.08 | 0.82 | 0.927 | 0.836 | 0.866 | 0.647 | 0.632 | 0.611 | 0.461 | 0.313 | 0.232 | 0.239 | 0.943 | 1.02 | 0.632 | 0.408 | – | –
IA-LM | 0.975 | 0.829 | 1.06 | 0.315 | 0.499 | 1.12 | 1.06 | 0.867 | 0.783 | 1.07 | 0.352 | 0.278 | 0.173 | 0.121 | 0.912 | 0.7 | 0.131 | 0.199 | 0.484 | 0.897
NCI-H1975 | 0.752 | 0.614 | 0.748 | 0.575 | 0.632 | 0.848 | 0.869 | 0.87 | 0.87 | 0.781 | 0.276 | 0.272 | 0.153 | 0.164 | 1.02 | 1.08 | 0.491 | 0.205 | 0.295 | 1.09
NCI-H460 | 0.694 | 0.644 | 0.692 | – | 0.601 | 1.02 | 1.05 | 0.969 | 0.935 | 1.02 | 0.425 | 0.449 | 0.229 | 0.0764 | 1.07 | – | 0.38 | 0.083 | 0.415 | 1.11
EPLC-272H | 0.533 | 0.383 | 0.548 | 0.297 | 0.484 | 0.72 | 0.693 | – | – | 0.656 | 0.337 | 0.338 | 0.258 | 0.142 | 0.842 | 1.23 | 0.883 | 0.805 | 0.295 | 1.06
SK-LU-1 | 0.71 | 0.557 | 0.788 | 0.75 | 0.742 | 0.813 | – | 0.804 | 0.712 | 0.72 | 0.65 | 0.674 | 0.301 | 0.354 | 0.932 | 0.968 | 0.776 | 0.439 | 0.556 | 1.05
NCI-H322M | 0.912 | 0.927 | 0.953 | 1 | 0.623 | 1 | 0.77 | 0.989 | 0.916 | 0.923 | 0.489 | 0.54 | 0.44 | 0.397 | 0.918 | 0.976 | 0.747 | 0.973 | 0.527 | 1.03
NCI-H2405 | 1.04 | 0.907 | 0.973 | 0.698 | 0.487 | 1.01 | 1.04 | 1.06 | 0.965 | 0.813 | 0.455 | 0.395 | 0.317 | 0.201 | 0.859 | 0.919 | 0.835 | 0.406 | 0.543 | 0.846
NCI-H1666 | 1 | 1.06 | 1.02 | 0.617 | 0.922 | 0.94 | 1.05 | 0.933 | 0.758 | 0.852 | 0.404 | 0.42 | 0.302 | 0.312 | 1.12 | 0.948 | 0.794 | 0.293 | 0.42 | 0.952
NCI-H358 | 0.74 | 0.564 | 0.812 | 0.55 | 0.368 | 0.62 | 0.701 | 0.607 | 0.538 | 0.365 | 0.359 | 0.377 | 0.227 | 0.245 | 0.515 | 0.665 | 0.409 | 0.424 | 0.298 | 0.617
H3255 | – | 0.761 | 0.698 | 0.396 | 0.682 | 0.796 | 0.907 | 0.944 | 0.682 | 0.976 | 0.431 | 0.471 | 0.335 | 0.345 | 0.821 | 0.92 | 0.58 | 0.327 | 0.456 | 1.09
LCLC-103H | 0.775 | 0.68 | 0.836 | 0.429 | 0.605 | 0.75 | 0.771 | 0.751 | 0.709 | 0.704 | 0.624 | 0.682 | 0.495 | 0.572 | 1.2 | 1.08 | 0.999 | 0.929 | 0.6 | 1.08
NCI-H2347 | 0.677 | 0.583 | 0.591 | 0.444 | 0.57 | 0.838 | 0.874 | 0.741 | 0.892 | 0.967 | 0.92 | 0.592 | 0.523 | 0.419 | 0.833 | 0.717 | 0.544 | 0.402 | 0.798 | 0.714
LK-2 | 0.237 | 0.335 | 0.178 | 0.275 | 0.176 | 1.27 | 1.24 | 1.21 | 1.08 | 1.22 | 0.632 | 0.744 | 0.438 | 0.443 | 0.269 | 0.213 | 0.21 | 0.333 | 0.645 | 0.169
HCC-15 | 0.822 | 0.752 | 0.763 | 0.633 | 0.705 | 1.08 | 1.01 | 1.04 | – | 0.809 | 0.864 | 0.812 | 0.459 | 0.139 | 0.976 | 0.97 | 0.489 | 0.15 | 0.878 | 0.892
SW 1573 | 0.934 | 0.575 | 0.786 | 0.26 | 0.518 | 0.959 | 0.912 | 0.764 | 0.744 | 0.628 | 0.469 | 0.715 | 0.474 | 0.232 | 0.66 | 1.03 | 0.724 | 0.296 | 0.483 | 0.948
NCI-H838 | 0.704 | 0.645 | 0.652 | 0.517 | 0.545 | 0.996 | 0.855 | 0.894 | – | 0.716 | 0.494 | 0.544 | 0.392 | 0.257 | 0.901 | 1.22 | 0.725 | 0.285 | 0.451 | 0.955
RERF-LC-KJ | 0.552 | 0.608 | 0.649 | 0.293 | 0.455 | 0.836 | 0.935 | 0.907 | 0.487 | 0.79 | 1.42 | 0.445 | 0.322 | 0.297 | 0.83 | 0.982 | 0.587 | 0.301 | 0.508 | 0.884
ChaGo-K-1 | 0.798 | 0.774 | 0.78 | – | 0.694 | 0.853 | 0.903 | 0.85 | 0.762 | 0.882 | 1.3 | 0.659 | 0.397 | 0.312 | 1.3 | 1.26 | 0.841 | 0.894 | 0.895 | 1.26
NCI-H441 | 0.904 | 0.829 | 0.84 | 0.556 | 0.547 | 0.928 | 1.18 | 0.834 | 0.835 | 0.492 | 0.505 | 0.468 | 0.145 | 0.209 | 0.697 | 0.485 | 0.217 | 0.222 | 0.441 | 0.834
NCI-H2170 | 0.771 | 0.771 | 0.753 | – | 0.696 | 0.994 | 1.05 | 0.974 | 0.773 | 0.963 | 0.312 | 0.295 | 0.254 | 0.288 | 1.31 | 1.33 | 0.693 | 0.411 | 0.317 | 1.34
PC-14 | 0.668 | 0.566 | 0.808 | 0.517 | 0.52 | 0.888 | 0.912 | 0.995 | 0.626 | 0.901 | 0.668 | 0.78 | 0.232 | 0.169 | 0.971 | 1.07 | 0.873 | 0.232 | 0.796 | 0.967
NCI-H2009 | 0.725 | 0.699 | 0.796 | 0.58 | 0.669 | 1.25 | 1.18 | 1.26 | – | 1.24 | 0.804 | 0.58 | 0.0875 | 0.173 | 1.01 | 0.999 | 0.589 | 0.288 | 0.782 | 1.04
NCI-H1437 | 0.815 | 0.709 | 0.851 | 0.618 | 0.626 | 1.18 | 1.11 | 1.25 | 0.822 | 1.25 | 0.48 | 0.477 | 0.393 | 0.207 | 0.971 | 1.11 | 0.902 | 0.195 | 0.46 | 0.993
NCI-H647 | 0.57 | 0.583 | 0.458 | 0.368 | 0.646 | 1.14 | 1.23 | 1.19 | – | 1.17 | 0.504 | 0.449 | 0.104 | 0.0557 | 0.869 | 0.942 | 0.416 | 0.207 | 0.402 | 1.18
SK-MES-1 | 1.08 | 0.991 | 1.14 | 0.637 | 0.779 | 0.865 | 1.08 | 0.999 | 0.778 | 0.81 | 0.334 | 0.447 | 0.35 | 0.24 | 1 | 1.11 | 0.751 | 0.284 | 0.374 | 1.07
NCI-H2087 | 0.68 | 0.74 | 0.702 | 0.693 | 0.795 | 1 | 0.995 | 1.01 | 0.813 | 0.967 | 0.881 | 1.13 | 0.313 | 0.187 | 1 | 0.995 | 0.61 | 0.146 | 0.94 | 0.839
